Experimental findings from PubChem BioAssay (NCI) are described below.

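Protocol summary: plate cells (96-well), add compound at 5 concentrations, incubate 48 h, interpolate endpoints linearly. The concentration for 50% growth inhibition is given as GI50. TGI is the concentration that stops growth completely.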

Some test systems named below: CAKI-1 renal; SK-MEL-2 melanoma; HOP-62 NSCLC; OVCAR-8 ovarian; HOP-92 NSCLC; SK-OV-3 ovarian; HT29 colon; NCI/ADR-RES ovarian; SNB-75 CNS; HCC-2998 colon.
Assay in all cases: NCI anticancer screen, dose series, 48 h

On to `O=[N+]([O-])c1ccc2nnnn2c1`, for which the TGI in the test with CAKI-1 renal was 63.1 µM; in the test with SK-MEL-2 melanoma, 67.1 µM; in the test on HOP-62 NSCLC, above 100 µM; with OVCAR-8 ovarian, above 100 µM; in the test with HOP-92 NSCLC, above 100 µM; in the test with SK-OV-3 ovarian it was above 100 µM. Moreover, the TGI in the test with HT29 colon, with NCI/ADR-RES ovarian and in the test with SNB-75 CNS was above 100 µM throughout.
For `NC(N)=NC(N)=Nc1cc2ccccc2c2ccccc12`, the GI50 was 13.6 µM in the test with SK-MEL-2 melanoma; 8.53 µM in the test on HOP-62 NSCLC; 5.15 µM in the test with OVCAR-8 ovarian; 1.31 µM in the test with HOP-92 NSCLC; 11.4 µM in the test on SK-OV-3 ovarian; 7.83 µM in the test with HT29 colon. Also, the GI50 was 6.89 µM in the test with HCC-2998 colon, 17 µM in the test with NCI/ADR-RES ovarian and 5.12 µM in the test on SNB-75 CNS. Moreover, the TGI in the test on SK-MEL-2 melanoma was found to be 30.5 µM; in the test on HOP-62 NSCLC, 22.8 µM; with OVCAR-8 ovarian it was 20.6 µM; with HOP-92 NSCLC, 11 µM; with SK-OV-3 ovarian it was 24 µM; with HT29 colon, 23.6 µM. Besides, the TGI worked out at 24.2 µM in the test with HCC-2998 colon, 43.2 µM in the test on NCI/ADR-RES ovarian and 19.9 µM with SNB-75 CNS.
In the case of `Cn1cc(C2=C(c3cn(C)c4c(N)cccc34)C(=O)NC2=O)c2ccccc21`, the GI50 is 0.857 µM with CAKI-1 renal; 1.56 µM in the test with SK-MEL-2 melanoma; 1.25 µM in the test with HOP-62 NSCLC; 2.85 µM with OVCAR-8 ovarian; 1.22 µM in the test on SK-OV-3 ovarian; 1.25 µM with HT29 colon. Besides, the values for the GI50 in the test with HCC-2998 colon, with NCI/ADR-RES ovarian and in the test on SNB-75 CNS were 6.01 µM, 2.02 µM and 0.352 µM, respectively. Also, the TGI in the test on CAKI-1 renal is above 25 µM; with SK-MEL-2 melanoma, 11 µM; with HOP-62 NSCLC it was above 15.2 µM; in the test with OVCAR-8 ovarian, above 25 µM; with SK-OV-3 ovarian, above 20.1 µM; in the test with HT29 colon, 12.8 µM. Besides, the TGI in the test with HCC-2998 colon is above 25 µM; with NCI/ADR-RES ovarian it was above 25 µM; in the test on SNB-75 CNS, 2.63 µM.
For `COc1ccc(S(=O)(=O)N(Cc2ccc3c(n2)C=CC(C)(C)O3)C2CCC2)cc1OC`, the GI50 was below 0.01 µM with CAKI-1 renal; below 0.01 µM in the test with HOP-62 NSCLC; below 0.01 µM in the test with OVCAR-8 ovarian; below 0.01 µM in the test on HOP-92 NSCLC; below 0.01 µM with SK-OV-3 ovarian; 0.021 µM with HT29 colon. Moreover, the GI50 is below 0.01 µM with HCC-2998 colon, 0.13 µM in the test on NCI/ADR-RES ovarian and below 0.01 µM in the test on SNB-75 CNS. The TGI in the test with CAKI-1 renal was 0.145 µM; in the test on HOP-62 NSCLC it was 1.29 µM; in the test on HOP-92 NSCLC, below 0.01 µM; in the test with SK-OV-3 ovarian, below 0.01 µM; in the test on HT29 colon, above 36.6 µM; in the test with HCC-2998 colon it was 3.79 µM. For the same molecule, the TGI was above 100 µM in the test on NCI/ADR-RES ovarian and 0.238 µM with SNB-75 CNS.
`COc1cc(-c2c(C#N)c(N)n3c(nc4ccccc43)c2C#N)cc(Br)c1OC`: the GI50 was 47.5 µM in the test on SK-MEL-2 melanoma; above 100 µM in the test on HOP-62 NSCLC; above 100 µM in the test with SK-OV-3 ovarian; above 100 µM with HCC-2998 colon; above 100 µM with NCI/ADR-RES ovarian; 2.18 µM in the test on SNB-75 CNS. The TGI in the test with SK-MEL-2 melanoma was above 100 µM; in the test on HOP-62 NSCLC it was above 100 µM; in the test with SK-OV-3 ovarian, above 100 µM; in the test on HCC-2998 colon, above 100 µM; in the test with NCI/ADR-RES ovarian, above 100 µM; in the test with SNB-75 CNS it was 9.98 µM.
Regarding `Cn1cc(C2=C(c3cn(CCCN=C(N)N)c4ccccc34)C(=O)NC2=O)c2ccccc21`, the GI50 in the test with CAKI-1 renal is above 25 µM; with SK-MEL-2 melanoma it was above 18.4 µM; with HOP-62 NSCLC, above 25 µM; in the test with OVCAR-8 ovarian, above 25 µM; in the test on SK-OV-3 ovarian, above 25 µM; in the test with HT29 colon it was above 25 µM. Moreover, the GI50 was above 25 µM in the test with HCC-2998 colon, above 25 µM with NCI/ADR-RES ovarian and 0.361 µM in the test with SNB-75 CNS. Further, the TGI in the test with CAKI-1 renal, in the test with SK-MEL-2 melanoma, with HOP-62 NSCLC, with OVCAR-8 ovarian, in the test on SK-OV-3 ovarian and in the test on HT29 colon was above 25 µM in each case. The TGI in the test on HCC-2998 colon, with NCI/ADR-RES ovarian and with SNB-75 CNS was above 25 µM throughout.
For the molecule `O=C(C[C@@H](C(=O)NCc1cccc(C(F)(F)F)c1)N1C(=O)[C@@H](N2C(=O)OC[C@@H]2c2ccccc2)[C@H]1/C=C/c1ccccc1)NC1CCN(Cc2ccccc2)CC1`, the GI50 in the test with CAKI-1 renal is 14 µM; in the test on SK-MEL-2 melanoma it was 14.1 µM; in the test with HOP-62 NSCLC it was 14.5 µM; in the test with OVCAR-8 ovarian, 3.08 µM; in the test on SK-OV-3 ovarian it was 15.3 µM; with HT29 colon it was 1.67 µM. In addition, the GI50 with HCC-2998 colon was 6.2 µM; in the test with NCI/ADR-RES ovarian, above 100 µM; in the test with SNB-75 CNS, 6.21 µM. Moreover, the TGI in the test with CAKI-1 renal is 34.4 µM; in the test with SK-MEL-2 melanoma, 30.6 µM; in the test with HOP-62 NSCLC it was 27.7 µM; in the test on SK-OV-3 ovarian it was 28.6 µM; in the test with HT29 colon it was 3.53 µM; in the test on HCC-2998 colon, 21.2 µM. Moreover, the TGI with NCI/ADR-RES ovarian is above 100 µM; in the test on SNB-75 CNS, 23 µM.
As to `CC(C)(C)OC(=O)N(CCCN(CCn1c2c(c3ccccc3c1=O)C(=O)c1ccccc1-2)C(=O)OC(C)(C)C)CCn1c2c(c3ccccc3c1=O)C(=O)c1ccccc1-2`, the GI50 was above 50 µM with CAKI-1 renal; above 50 µM in the test with SK-MEL-2 melanoma; 22.3 µM in the test on HOP-62 NSCLC; 34.9 µM with OVCAR-8 ovarian; above 50 µM in the test with SK-OV-3 ovarian; above 50 µM in the test with HT29 colon. Besides, in the test with NCI/ADR-RES ovarian, the GI50 is above 50 µM. In addition, the TGI in the test on CAKI-1 renal, in the test with SK-MEL-2 melanoma, in the test with HOP-62 NSCLC, in the test with OVCAR-8 ovarian, in the test with SK-OV-3 ovarian and in the test with HT29 colon was above 50 µM each time. The molecule further displayed a TGI in the test on NCI/ADR-RES ovarian above 50 µM.
Consider `COc1cc(C(=O)O[C@H](C(N)=O)[C@]2(C)CO2)c2ccccc2c1`, for which the GI50 in the test on CAKI-1 renal was 20.6 µM; in the test on SK-MEL-2 melanoma, 17.2 µM; with HOP-62 NSCLC it was 5.72 µM; with OVCAR-8 ovarian it was 5.87 µM; with HOP-92 NSCLC, 20.3 µM; in the test on SK-OV-3 ovarian it was 14.3 µM. The GI50 was 13.7 µM in the test with HT29 colon and 12.3 µM in the test with NCI/ADR-RES ovarian. Besides, the TGI in the test on CAKI-1 renal stood at 39.8 µM; in the test on SK-MEL-2 melanoma, 42.7 µM; with HOP-62 NSCLC, 17.9 µM; in the test with OVCAR-8 ovarian, 25.3 µM; in the test on HOP-92 NSCLC, 50.6 µM; with SK-OV-3 ovarian, 28 µM. Also, the TGI in the test on HT29 colon is 27.9 µM; in the test on NCI/ADR-RES ovarian it was 30.3 µM.
